Several values for one entry are separate records, joined by “and”; a condition that tells them apart may be missing. Identical values can stand only once.
Experiment: molar heat capacity at constant pressure; xn = mol fraction of the nth substance listed
Details: 100 kPa

[Si] [silicon] + [Li]
Details	molar heat capacity at constant pressure
2.03 K, Crystal of intercomponent compound 1, relaxation calorimetry, x2 = 0.81	0.0088 J/K/mol
2.03 K, Crystal of intercomponent compound 2, relaxation calorimeter, x2 = 0.804	0.0022 J/K/mol
2.13 K, Crystal of intercomponent compound 1, relaxation calorimetry, x2 = 0.81	0.0091 J/K/mol
2.13 K, Crystal of intercomponent compound 2, relaxation calorimeter, x2 = 0.804	0.0023 J/K/mol
2.14 K, Crystal of intercomponent compound 2, relaxation calorimeter, x2 = 0.804	0.0022 J/K/mol
2.25 K, Crystal of intercomponent compound 1, relaxation calorimetry, x2 = 0.81	0.0096 J/K/mol
2.25 K, Crystal of intercomponent compound 2, relaxation calorimeter, x2 = 0.804	0.0024 J/K/mol and 0.0023 J/K/mol
2.37 K, Crystal of intercomponent compound 1, relaxation calorimetry, x2 = 0.81	0.0101 J/K/mol
2.37 K, Crystal of intercomponent compound 2, relaxation calorimeter, x2 = 0.804	0.0024 J/K/mol and 0.0025 J/K/mol
2.49 K, Crystal of intercomponent compound 1, relaxation calorimetry, x2 = 0.81	0.0107 J/K/mol
2.49 K, Crystal of intercomponent compound 2, relaxation calorimeter, x2 = 0.804	0.0026 J/K/mol
2.5 K, Crystal of intercomponent compound 2, relaxation calorimeter, x2 = 0.804	0.0025 J/K/mol
2.63 K, Crystal of intercomponent compound 1, relaxation calorimetry, x2 = 0.81	0.0111 J/K/mol
2.63 K, Crystal of intercomponent compound 2, relaxation calorimeter, x2 = 0.804	0.0028 J/K/mol and 0.0025 J/K/mol
2.77 K, Crystal of intercomponent compound 1, relaxation calorimetry, x2 = 0.81	0.0116 J/K/mol
2.77 K, Crystal of intercomponent compound 2, relaxation calorimeter, x2 = 0.804	0.0028 J/K/mol
2.92 K, Crystal of intercomponent compound 1, relaxation calorimetry, x2 = 0.81	0.0121 J/K/mol
2.92 K, Crystal of intercomponent compound 2, relaxation calorimeter, x2 = 0.804	0.0031 J/K/mol and 0.003 J/K/mol
3.08 K, Crystal of intercomponent compound 1, relaxation calorimetry, x2 = 0.81	0.0126 J/K/mol
3.08 K, Crystal of intercomponent compound 2, relaxation calorimeter, x2 = 0.804	0.0032 J/K/mol and 0.003 J/K/mol
3.24 K, Crystal of intercomponent compound 1, relaxation calorimetry, x2 = 0.81	0.0133 J/K/mol
3.24 K, Crystal of intercomponent compound 2, relaxation calorimeter, x2 = 0.804	0.0035 J/K/mol and 0.0032 J/K/mol
3.41 K, Crystal of intercomponent compound 1, relaxation calorimetry, x2 = 0.81	0.0135 J/K/mol
3.41 K, Crystal of intercomponent compound 2, relaxation calorimeter, x2 = 0.804	0.0036 J/K/mol
3.6 K, Crystal of intercomponent compound 1, relaxation calorimetry, x2 = 0.81	0.0141 J/K/mol
3.6 K, Crystal of intercomponent compound 2, relaxation calorimeter, x2 = 0.804	0.0039 J/K/mol and 0.0036 J/K/mol
3.79 K, Crystal of intercomponent compound 1, relaxation calorimetry, x2 = 0.81	0.015 J/K/mol
3.79 K, Crystal of intercomponent compound 2, relaxation calorimeter, x2 = 0.804	0.0041 J/K/mol and 0.004 J/K/mol
3.99 K, Crystal of intercomponent compound 1, relaxation calorimetry, x2 = 0.81	0.0157 J/K/mol
3.99 K, Crystal of intercomponent compound 2, relaxation calorimeter, x2 = 0.804	0.0044 J/K/mol and 0.0042 J/K/mol
4.2 K, Crystal of intercomponent compound 1, relaxation calorimetry, x2 = 0.81	0.0163 J/K/mol
4.2 K, Crystal of intercomponent compound 2, relaxation calorimeter, x2 = 0.804	0.0047 J/K/mol and 0.0044 J/K/mol
4.43 K, Crystal of intercomponent compound 1, relaxation calorimetry, x2 = 0.81	0.0172 J/K/mol
4.43 K, Crystal of intercomponent compound 2, relaxation calorimeter, x2 = 0.804	0.0048 J/K/mol and 0.005 J/K/mol
4.66 K, Crystal of intercomponent compound 2, relaxation calorimeter, x2 = 0.804	0.0051 J/K/mol
4.67 K, Crystal of intercomponent compound 1, relaxation calorimetry, x2 = 0.81	0.0175 J/K/mol
4.67 K, Crystal of intercomponent compound 2, relaxation calorimeter, x2 = 0.804	0.0052 J/K/mol
4.91 K, Crystal of intercomponent compound 2, relaxation calorimeter, x2 = 0.804	0.0056 J/K/mol
4.92 K, Crystal of intercomponent compound 1, relaxation calorimetry, x2 = 0.81	0.0182 J/K/mol
4.92 K, Crystal of intercomponent compound 2, relaxation calorimeter, x2 = 0.804	0.0054 J/K/mol
5 K, Crystal of intercomponent compound 1, relaxation calorimetry + DSC, x2 = 0.81	0.0184 J/K/mol
5 K, Crystal of intercomponent compound 2, relaxation calorimetry + DSC, x2 = 0.804	0.0056 J/K/mol
5.18 K, Crystal of intercomponent compound 1, relaxation calorimetry, x2 = 0.81	0.0193 J/K/mol
5.18 K, Crystal of intercomponent compound 2, relaxation calorimeter, x2 = 0.804	0.006 J/K/mol and 0.0057 J/K/mol
5.46 K, Crystal of intercomponent compound 2, relaxation calorimeter, x2 = 0.804	0.0064 J/K/mol
5.47 K, Crystal of intercomponent compound 1, relaxation calorimetry, x2 = 0.81	0.0201 J/K/mol
5.47 K, Crystal of intercomponent compound 2, relaxation calorimeter, x2 = 0.804	0.0061 J/K/mol
5.76 K, Crystal of intercomponent compound 1, relaxation calorimetry, x2 = 0.81	0.0206 J/K/mol
5.76 K, Crystal of intercomponent compound 2, relaxation calorimeter, x2 = 0.804	0.007 J/K/mol and 0.0066 J/K/mol
6.07 K, Crystal of intercomponent compound 1, relaxation calorimetry, x2 = 0.81	0.0218 J/K/mol
6.07 K, Crystal of intercomponent compound 2, relaxation calorimeter, x2 = 0.804	0.0075 J/K/mol and 0.0071 J/K/mol
6.39 K, Crystal of intercomponent compound 1, relaxation calorimetry, x2 = 0.81	0.0227 J/K/mol
6.39 K, Crystal of intercomponent compound 2, relaxation calorimeter, x2 = 0.804	0.0083 J/K/mol and 0.0079 J/K/mol
6.73 K, Crystal of intercomponent compound 1, relaxation calorimetry, x2 = 0.81	0.0242 J/K/mol
6.73 K, Crystal of intercomponent compound 2, relaxation calorimeter, x2 = 0.804	0.0091 J/K/mol and 0.0088 J/K/mol
7.09 K, Crystal of intercomponent compound 1, relaxation calorimetry, x2 = 0.81	0.0252 J/K/mol
7.09 K, Crystal of intercomponent compound 2, relaxation calorimeter, x2 = 0.804	0.0098 J/K/mol and 0.01 J/K/mol
7.47 K, Crystal of intercomponent compound 1, relaxation calorimetry, x2 = 0.81	0.0267 J/K/mol
7.47 K, Crystal of intercomponent compound 2, relaxation calorimeter, x2 = 0.804	0.0113 J/K/mol and 0.0109 J/K/mol
7.87 K, Crystal of intercomponent compound 1, relaxation calorimetry, x2 = 0.81	0.0284 J/K/mol
7.87 K, Crystal of intercomponent compound 2, relaxation calorimeter, x2 = 0.804	0.0126 J/K/mol and 0.0123 J/K/mol
8.29 K, Crystal of intercomponent compound 2, relaxation calorimeter, x2 = 0.804	0.0143 J/K/mol and 0.0139 J/K/mol
8.3 K, Crystal of intercomponent compound 1, relaxation calorimetry, x2 = 0.81	0.0304 J/K/mol
8.74 K, Crystal of intercomponent compound 1, relaxation calorimetry, x2 = 0.81	0.0327 J/K/mol
8.74 K, Crystal of intercomponent compound 2, relaxation calorimeter, x2 = 0.804	0.016 J/K/mol and 0.0162 J/K/mol
9.2 K, Crystal of intercomponent compound 1, relaxation calorimetry, x2 = 0.81	0.0351 J/K/mol
9.2 K, Crystal of intercomponent compound 2, relaxation calorimeter, x2 = 0.804	0.0183 J/K/mol and 0.0187 J/K/mol
9.69 K, Crystal of intercomponent compound 2, relaxation calorimeter, x2 = 0.804	0.0216 J/K/mol and 0.0208 J/K/mol
9.7 K, Crystal of intercomponent compound 1, relaxation calorimetry, x2 = 0.81	0.038 J/K/mol
10 K, Crystal of intercomponent compound 1, relaxation calorimetry + DSC, x2 = 0.81	0.0403 J/K/mol
10 K, Crystal of intercomponent compound 2, relaxation calorimetry + DSC, x2 = 0.804	0.0233 J/K/mol
10.22 K, Crystal of intercomponent compound 1, relaxation calorimetry, x2 = 0.81	0.0412 J/K/mol
10.22 K, Crystal of intercomponent compound 2, relaxation calorimeter, x2 = 0.804	0.0245 J/K/mol and 0.025 J/K/mol
10.75 K, Crystal of intercomponent compound 1, relaxation calorimetry, x2 = 0.81	0.0449 J/K/mol
10.75 K, Crystal of intercomponent compound 2, relaxation calorimeter, x2 = 0.804	0.0286 J/K/mol and 0.0291 J/K/mol
11.32 K, Crystal of intercomponent compound 1, relaxation calorimetry, x2 = 0.81	0.0492 J/K/mol
11.32 K, Crystal of intercomponent compound 2, relaxation calorimeter, x2 = 0.804	0.0342 J/K/mol and 0.0335 J/K/mol
11.93 K, Crystal of intercomponent compound 1, relaxation calorimetry, x2 = 0.81	0.0547 J/K/mol
11.93 K, Crystal of intercomponent compound 2, relaxation calorimeter, x2 = 0.804	0.0403 J/K/mol and 0.0398 J/K/mol
12.56 K, Crystal of intercomponent compound 1, relaxation calorimetry, x2 = 0.81	0.0613 J/K/mol
